Data: patent US8685953B2, “Linear and cyclic guanidine derivatives, method of preparation and uses thereof” (Universita Degli Studi Di Siena, priority 2008, dated 2014)
≈ marks a conversion by molar mass, not a printed value. Structures can show the parent of a compound that is named as a salt. Where two headings read alike, the source gives them in different places.

Legend:
[1] = tested on: C. parapsilosis ATCC 34136; assay: MIC determination by AFST-EUCAST standard methodology; type: cell-based; conditions: visually and spectrophotometrically, read-out: Antifungal activity, expressed as MIC50
Protocol: (§1) Determination of MICs by AFST-EUCAST Standard Methodology
(§2) Assay medium. The assay medium was RPMI […] without NaHCO3 and with L-glutamine (Sigma Aldrich, Italy), buffered at pH 7.0 with 0.165 M morpholinepropanesulphonic acid (Sigma Aldrich, Italy) and supplemented with 2% (w/v) glucose. The medium, prepared as double-strength solution, was sterilized by filtration and diluted 1:2 (v/v) with the fungal inoculum prepared in sterile distilled water.
(§3) The yeast isolates were grown on Sabouraud dextrose agar (Oxoid, Madrid, Spain) for 48 h at 37° C. before testing. Suspensions were prepared by combining five distinct colonies of each culture of >1 mm diameter. A spectrophotometric procedure for inoculum preparation was used. The final inoculum suspension, prepared in sterile distilled water, contained between 0.5·10^5 and 2.5·10^5 cfu/mL.
(§4) Stock solutions of test compounds were prepared in 100% dimethyl sulfoxide. Stock solutions were prepared as 100× concentration relative to the highest concentration in the antifungal activity test, and frozen at −70° C. until used.
(§5) Sterile plastic micro titration plates containing flat-bottomed wells were used. The plates contained serial dilution of the antifungal agents with a volume of assay medium of 100 μL/well. Two drug-free medium wells were used as sterility and growth controls. The trays were inoculated with 100 μL/well of the final inoculum, with the exception of sterility control wells. The range of concentrations tested for each drug was 1.25-80 μM. The microtitration plates were incubated at 37° C. for 24 h. The minimal inhibitory concentrations (MICs) were determined at 24 h both visually and spectrophotometrically.
(§6) By visual endpoint determination, MICs were determined according to a S-1-R scale, with S (susceptible) indicating an optical clear culture, I (intermediate susceptibility) indicating a slightly hazy culture, and R (resistant) indicating no reduction in turbidity. The MIC50 was defined as the lowest concentration of a drug which correspond to a S culture.
(§7) Microtitration plates were stirred using a microtitration plate shaker before reading to ensure uniform turbidity. MICs were obtained by measuring the absorbance at 450 nm with a microtitration plate reader. The value of the blank was subtracted from reading of the rest of the wells. Two endpoints were defined for each antifungal agent tested, with MIC80 indicating the lowest drug concentration resulting in a reduction of growth of 80% or more (determined spectrophotometrically) compared with the growth of the control, and MIC50 indicating the lowest drug concentration resulting in a reduction in growth of 50% (determined spectrophotometrically) compared with the growth of the control. The MIC50 was also defined as the spectrophotometric endpoint.

C. parapsilosis 64E = assay: as above; type: cell-based; conditions: 24 h, visually and spectrophotometrically, read-out: Antifungal activity, expressed as MIC50
Protocol: as §1, §2, §3, §4, §5, §6, §7

C. krusei ATCC 14243 = assay: as above; type: cell-based; conditions: visually and spectrophotometrically, read-out: Antifungal activity, expressed as MIC50
Protocol: as §1, §2, §3, §4, §5, §6, §7

C. krusei 193T = assay: as above; type: cell-based; conditions: 24 h, visually and spectrophotometrically, read-out: Antifungal activity, expressed as MIC50
Protocol: as §1, §2, §3, §4, §5, §6, §7

C. glabrata 70E = assay: as above; type: cell-based; conditions: for MIC50: C. glabrata 70E, 24 h, visually and spectrophotometrically, read-out: Antifungal activity, expressed as MIC50
Protocol: as §1, §2, §3, §4, §5, §6, §7

C. tropicalis 86E = assay: as above; type: cell-based; conditions: 24 h, visually and spectrophotometrically, read-out: Antifungal activity, expressed as MIC50
Protocol: as §1, §2, §3, §4, §5, §6, §7

C. parapsilosis 81E = assay: as above; type: cell-based; conditions: 24 h, visually and spectrophotometrically, read-out: Antifungal activity, expressed as MIC50
Protocol: as §1, §2, §3, §4, §5, §6, §7

C. albicans 53T = assay: as above; type: cell-based, Candida albicans; conditions: 24 h, visually and spectrophotometrically, read-out: Antifungal activity, expressed as MIC50
Protocol: as §1, §2, §3, §4, §5, §6, §7

C. albicans 15T = assay: as above; type: cell-based, Candida albicans; conditions: 24 h, visually and spectrophotometrically, read-out: Antifungal activity, expressed as MIC50
Protocol: as §1, §2, §3, §4, §5, §6, §7

C. albicans 4T = assay: as above; type: cell-based, Candida albicans; conditions: 24 h, visually and spectrophotometrically; for MIC50: read-out: Antifungal activity, expressed as MIC50
Protocol: as §1, §2, §3, §4, §5, §6, §7

C. albicans ATCC 60193 = assay: as above; type: cell-based, Candida albicans; conditions: visually and spectrophotometrically, read-out: Antifungal activity, expressed as MIC50
Protocol: as §1, §2, §3, §4, §5, §6, §7

C. krusei strains = assay: MIC determination, summary over C. krusei strains; type: cell-based; conditions: Pichia kudriavzevii; text summary over C. krusei strains; read-out: activity toward C. krusei strains (MIC)
Protocol: as §1, §2
(§8) The yeast isolates were grown on Sabouraud dextrose agar (Oxoid, Madrid, Spain) for 48 h at 37° C. before testing. Suspensions were prepared by combining five distinct colonies of each culture of >1 mm diameter. […]
(§9) Sterile plastic micro titration plates containing flat-bottomed wells were used. […] The minimal inhibitory concentrations (MICs) were determined at 24 h both visually and spectrophotometrically.
(§10) By visual endpoint determination, MICs were determined according to a S-1-R scale, with S (susceptible) indicating an optical clear culture, I (intermediate susceptibility) indicating a slightly hazy culture, and R (resistant) indicating no reduction in turbidity. […]
(§11) Microtitration plates were stirred using a microtitration plate shaker before reading to ensure uniform turbidity. MICs were obtained by measuring the absorbance at 450 nm with a microtitration plate reader. The value of the blank was subtracted from reading of the rest of the wells. […]

C. albicans = assay: MIC determination, summary over C. albicans strains; type: cell-based; conditions: Candida albicans; text summary over all C. albicans strains; read-out: activity toward C. albicans (MIC)
Protocol: as §1, §2, §8, §9, §10, §11

C. parapsilosis = assay: MIC determination, summary over C. parapsilosis; type: cell-based; conditions: Lodderomyces parapsilosis, stated jointly with C. glabrata; read-out: activity toward C. parapsilosis (MIC)
Protocol: as §1, §2, §8, §9, §10, §11

[2] = Lodderomyces parapsilosis, ATCC34136, 24 h
[3] = Pichia kudriavzevii, ATCC14243, 24 h
[4] = Candida albicans, ATCC60193, 24 h

MIC50 [1, 2] [µM]	MIC50 (C. parapsilosis 64E; Lodderomyces parapsilosis) [µM]	MIC50 (C. krusei ATCC 14243; [3]) [µM]	MIC50 (C. krusei 193T; Pichia kudriavzevii) [µM]	MIC50 (C. glabrata 70E; Nakaseomyces glabratus) [µM]	MIC50 (C. tropicalis 86E; Candida tropicalis) [µM]	MIC50 (C. parapsilosis 81E; Lodderomyces parapsilosis) [µM]	MIC50 (C. albicans 53T; Candida albicans) [µM]	MIC50 (C. albicans 15T; Candida albicans) [µM]	MIC50 (C. albicans 4T; Candida albicans) [µM]	MIC50 (C. albicans ATCC 60193; [4]) [µM]	SMILES	also measured
											CC(C)=CCNC(=N)NCCCCCCCCN1CCCCCCCCNC(=N)NC1=O [Compound 13f]	MIC50 ([1]; 24 h): >80 µM; MIC50 (C. parapsilosis 64E): >80 µM; MIC50 (C. krusei ATCC 14243; 24 h): 10 µM (≈ 4.5 µg/mL); MIC50 (C. krusei 193T): 20 µM (≈ 8.99 µg/mL); MIC50 (C. glabrata 70E): 80 µM (≈ 36 µg/mL); MIC50 (C. tropicalis 86E): 20 µM (≈ 8.99 µg/mL); MIC50 (C. parapsilosis 81E): 40 µM (≈ 18 µg/mL); MIC50 (C. albicans 53T): 20 µM (≈ 8.99 µg/mL); MIC50 (C. albicans 15T): 20 µM (≈ 8.99 µg/mL); MIC50 (C. albicans 4T): 20 µM (≈ 8.99 µg/mL); MIC50 (C. albicans ATCC 60193; 24 h): 40 µM (≈ 18 µg/mL)
80	20	20	10	40	2.5	20	2.5	5	2.5	2.5	N=C(NCCCCCCCCN1CCCCCCCCNC(=N)NC1=O)NCc1ccccc1 [Compound 15a, 1-[benzyl]-3-[8-(4-imino-2-oxo-1,3,5-triazacyclotridec-1-yl)octyl]guanidine tri trifluoroacetate]	
40	40	80	40	80	5	80	5	2.5	80	2.5	C#CCNC(=N)NCCCCCCCCN1CCCCCCCCNC(=N)NC1=O.O=C(O)C(F)(F)F.O=C(O)C(F)(F)F.O=C(O)C(F)(F)F [Compound 15b, 1-[propargyl]-3-[8-(4-imino-2-oxo-1,3,5-triazacyclotridec-1-yl)octyl]guanidine tri trifluoroacetate]	Antifungal activity, expressed as MIC50 (C. albicans 4T): resistant
> 80	20	10	10	40	1.25	40	2.5	2.5	2.5	2.5	N=C(NCCCCCCCCN1CCCCCCCCNC(=N)NC1=O)NCC1CC1 [Compound 15c, 1-[cyclopropylmethyl]-3-[8-(4-imino-2-oxo-1,3,5-triazacyclotridec-1-yl)octyl]guanidine tri trifluoroacetate]	MIC (C. krusei strains): 10 µM; MIC (C. albicans): 2.5 µM
> 80	> 80	40	80	80	40	> 80	40	20	40	20	C=C(C)CNC(=N)NCCCCCCCCN1CCCCCCCCNC(=N)NC1=O [Compound 15d, 1[β-methylallyl]-3-[8-(4-imino-2-oxo-1,3,5-triazacyclotridec-1-yl)octyl]guanidine tri trifluoroacetate]	
> 80	> 80	10	20	80	20	40	20	20	20	40	CC(C)=CCNC(=N)NCCCCCCCCN1CCCCCCCCNC(=N)NC1=O [Compound 15e, 1-[γ,γ-dimethylallyl]-3-[8-(4-imino-2-oxo-1,3,5-triazacyclotridec-1-yl)octyl]guanidine tri trifluoroacetate]	MIC (C. parapsilosis): 40 to 80 µM; MIC (C. glabrata 70E; Nakaseomyces glabratus, 70E, stated jointly with C. parapsilosis, read-out: activity toward C. glabrata (MIC)): 40 to 80 µM; MIC (C. albicans): 20 to 40 µM
6.5 (≈ 1.99 µg/mL)	32 (≈ 9.8 µg/mL)	209 (≈ 64 µg/mL)	418 (≈ 128 µg/mL)	209 (≈ 64 µg/mL)	52 (≈ 15.9 µg/mL)	13 (≈ 3.98 µg/mL)	418 (≈ 128 µg/mL)	209 (≈ 64 µg/mL)	209 (≈ 64 µg/mL)	0.8 (≈ 0.245 µg/mL)	OC(Cn1cncn1)(Cn1cncn1)c1ccc(F)cc1F [F, fluconazole, reference compound]	
